From patent US9102591B2, “Benzamides” (H. Lundbeck A/S, priority 2012, dated 2015)
pIC50: −log10 of the molar value.

Biological target: P2X7 receptor (Homo sapiens (Human), UniProt Q99572)
Test: P2X7 FLIPR assay (BzATP-stimulated calcium fluorescence, antagonist IC50)
Assay type: cell-based
Protocol: This example illustrates representative assays for use in evaluating the test compounds for antagonist activity. Compounds of the present invention were tested in vitro for their ability to act as antagonists to the P2X7receptor. […]
Cells were plated to cell density of approximately 15,000 cells/well in 384-well assay plates (50 μl/well) with 1.5% low serum media (DMEM, 1.5% FBS, 1% L-glut (2 mM), 10 mM HUES, 1% P/S). Cells were plated 24 hours prior to assay. Cells expressing human, rat or mouse P2X7 receptor were assayed in the following manner.
Fluo-4 NW dye mix (Molecular Probes, Inc., Eugene, Oreg., USA) was prepared in buffer (see manufacturer's instructions). Cell plates were removed from the 37° C. incubator, the media discarded and then 30 μL of dye was added to each well. Plates were placed in the 37° C., non-CO2 incubator for 30 minutes and then room temperature for 30 minutes.
Compound mixtures (A) were added to assay plates containing cells and placed at room temperature for 30 minutes, then BzATP (B) was added. Fluorescence was read using the Tetra FLIPR® (Molecular Devices, Inc., Sunnyvale, Calif., USA) and IC50 values were calculated by standard methods to determine antagonist activity.

Chain of P2X7 receptor (Q99572 whole entry): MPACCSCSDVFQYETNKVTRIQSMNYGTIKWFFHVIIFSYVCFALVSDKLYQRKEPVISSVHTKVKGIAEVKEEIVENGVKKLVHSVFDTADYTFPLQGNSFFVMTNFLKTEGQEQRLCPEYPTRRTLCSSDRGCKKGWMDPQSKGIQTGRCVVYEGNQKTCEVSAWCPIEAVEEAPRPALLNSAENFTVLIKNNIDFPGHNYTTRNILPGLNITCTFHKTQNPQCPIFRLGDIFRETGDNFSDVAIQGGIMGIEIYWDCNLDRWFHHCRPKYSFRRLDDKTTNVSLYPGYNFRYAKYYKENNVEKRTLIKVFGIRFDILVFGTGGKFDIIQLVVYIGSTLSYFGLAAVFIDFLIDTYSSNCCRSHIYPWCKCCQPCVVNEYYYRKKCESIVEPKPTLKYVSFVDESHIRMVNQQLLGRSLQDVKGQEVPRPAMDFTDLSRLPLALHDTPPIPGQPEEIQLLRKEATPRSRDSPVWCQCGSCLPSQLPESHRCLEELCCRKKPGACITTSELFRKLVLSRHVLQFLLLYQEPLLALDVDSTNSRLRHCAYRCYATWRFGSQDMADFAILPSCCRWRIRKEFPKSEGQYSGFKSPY

SMILES	pIC50
O=C(NCC(c1cnc(C(F)(F)F)nc1)C1CCOCC1)c1c(F)cccc1Cl (single isomer, unassigned; (+)) [(+)2-chloro-6-fluoro-N-[2-tetrahydropyran-4-yl-2-[2-(trifluo] [(+)2-chloro-6-fluoro-N-[2-tetrahydropyran-4-yl-2-[2-(trifluoromethyl)pyrimidin-5-yl]ethyl]benzamide]	7.25
O=C(NCC(c1cnc(C(F)(F)F)nc1)C1CCC(F)(F)CC1)c1c(F)cccc1Cl (single isomer, unassigned; (+)) [(+)2-chloro-N-[2-(4,4-difluorocyclohexyl)-2-[2-(trfluorometh] [(+)2-chloro-N-[2-(4,4-difluorocyclohexyl)-2-[2-(trfluoromethyl)pyrimidin-5-yl]ethyl]-6-fluoro-benzamide]	7.12
CC(CNC(=O)c1cccc(F)c1Cl)(CC1CC1)c1cnc(C(F)(F)F)nc1 (single isomer, unassigned; (-)) [(−)2-chloro-N-[3-cyclopropyl-2-methyl-2-[2-(trifluoromethyl)] [(−)2-chloro-N-[3-cyclopropyl-2-methyl-2-[2-(trifluoromethyl)pyrimidin-5-yl]propyl]-3-fluoro-benzamide]	7.47
N#Cc1ccccc1C(=O)NCC1(c2ccc(C(F)(F)F)nc2)CCC(F)(F)CC1 [2-cyano-N-((4,4-difluoro-1-(6-(trifluoromethyl)pyridin-3-yl)cyclohexyl)methyl)benzamide]	6.82
O=C(NCC(CC1CC1)c1ccc(C(F)(F)F)nc1)c1c(Cl)cccc1Cl (stereo not drawn) [2,6-dichloro-N-(3-cyclopropyl-2-(6-(trifluoromethyl)pyridin-] [2,6-dichloro-N-(3-cyclopropyl-2-(6-(trifluoromethyl)pyridin-3-yl)propyl)benzamide]	9.15
O=C(NCC(c1ccc(F)cc1)c1ccc(C(F)(F)F)nc1)c1cccc(F)c1Cl (single isomer, unassigned; (-)) [(−)2-chloro-3-fluoro-N-[2-(4-fluorophenyl)-2-[6-(trifluorome] [(−)2-chloro-3-fluoro-N-[2-(4-fluorophenyl)-2-[6-(trifluoromethyl)-3-pyridyl]ethyl]benzamide]	8.15
Cc1ncc(C(CNC(=O)c2c(Cl)cccc2Cl)CC2CC2)cn1 (single isomer, unassigned; (-)) [(−)2,6-dichloro-N-[3-cyclopropyl-2-(2-methylpyrimidin-5-yl)p] [(−)2,6-dichloro-N-[3-cyclopropyl-2-(2-methylpyrimidin-5-yl)propyl]benzamide]	8.00
O=C(NCC(CC1CC1)c1cnc(C(F)F)nc1)c1cccc(Cl)c1Cl (single isomer, unassigned; (+)) [(+)2,3-dichloro-N-[3-cyclopropyl-2-[2-(difluoromethyl)pyrimi] [(+)2,3-dichloro-N-[3-cyclopropyl-2-[2-(difluoromethyl)pyrimidin-5-yl]propyl]benzamide]	7.64
Cc1ncc(C(CNC(=O)c2cccc(F)c2Cl)C2CCC(F)(F)CC2)cn1 (stereo not drawn) [2-chloro-N-[2-(4,4-difluorocyclohexyl)-2-(2-methylpyrimidin-5-yl)ethyl]-3-fluoro-benzamide]	7.08
Cc1ncc(C(CNC(=O)c2cccc(Cl)c2Cl)CC2(C(F)(F)F)CC2)cn1 (single isomer, unassigned; (-)) [(−)2,3-dichloro-N-[2-(2-methylpyrimidin-5-yl)-3-[1-(trifluor] [(−)2,3-dichloro-N-[2-(2-methylpyrimidin-5-yl)-3-[1-(trifluoromethyl)cyclopropyl]propyl]benzamide]	7.19
O=C(NCC(CC1(C(F)(F)F)CC1)c1ccc(C(F)(F)F)nc1)c1cccc(F)c1Cl (single isomer, unassigned; (-)) [(−)2-chloro-3-fluoro-N-[3-[1-(trifluoromethyl)cyclopropyl]-2] [(−)2-chloro-3-fluoro-N-[3-[1-(trifluoromethyl)cyclopropyl]-2-[6-(trifluoromethyl)-3-pyridyl]propyl]benzamide]	7.80
O=C(NCC(CC1(C(F)(F)F)CC1)c1ccc(C(F)(F)F)nc1)c1cccc(Cl)c1Cl (stereo not drawn) [2,3-dichloro-N-[3-[1-(trifluoromethyl)cyclopropyl]-2-[6-(tri] [2,3-dichloro-N-[3-[1-(trifluoromethyl)cyclopropyl]-2-[6-(trifluoromethyl)-3-pyridyl]propyl]benzamide]	7.72
Cc1ccccc1C(=O)NCC1(c2ccc(C(F)(F)F)nc2)CCC(F)(F)CC1 [N-((4,4-difluoro-1-(6-(trifluoromethyl)pyridin-3-yl)cyclohexyl)methyl)-2-methylbenzamide]	8.59
O=C(NCC(c1ccc(F)cc1)c1cnc(C(F)(F)F)nc1)c1c(F)cccc1Cl (single isomer, unassigned; (-)) [(−)2-chloro-6-fluoro-N-[2-(4-fluorophenyl)-2-[2-(trifluorome] [(−)2-chloro-6-fluoro-N-[2-(4-fluorophenyl)-2-[2-(trifluoromethyl)pyrimidin-5-yl]ethyl]benzamide]	8.59
CC(CNC(=O)c1cccc(F)c1Cl)(CC1CC1)c1cnc(C(F)(F)F)nc1 (single isomer, unassigned; (+)) [(+)2-chloro-N-[3-cyclopropyl-2-methyl-2-[2-(trifluoromethyl)] [(+)2-chloro-N-[3-cyclopropyl-2-methyl-2-[2-(trifluoromethyl)pyrimidin-5-yl]propyl]-3-fluoro-benzamide]	6.44
Cc1ncc(C2(C(C)NC(=O)c3cccc(F)c3Cl)CCOCC2)cn1 (stereo not drawn) [2-chloro-3-fluoro-N-[1-[4-(2-methylpyrimidin-5-yl)tetrahydropyran-4-yl]ethyl]benzamide]	7.82
O=C(NCC(c1cnc(C(F)(F)F)nc1)C1CCC(F)(F)CC1)c1cccc(F)c1Cl (single isomer, unassigned; (+)) [(+)2-chloro-N-[2-(4,4-difluorocyclohexyl)-2-[2-(trifluoromet] [(+)2-chloro-N-[2-(4,4-difluorocyclohexyl)-2-[2-(trifluoromethyl)pyrimidin-5-yl]ethyl]-3-fluoro-benzamide]	7.35
Cc1ncc(C2(C(C)NC(=O)c3cccc(F)c3Cl)CCC(F)(F)CC2)cn1 (stereo not drawn) [2-chloro-N-[1-[4,4-difluoro-1-(2-methylpyrimidin-5-yl)cyclohexyl]ethyl]-3-fluoro-benzamide]	5.70
Cc1c(F)cccc1C(=O)NCC1(c2ccc(C(F)(F)F)nc2)CCC(F)(F)CC1 [N-((4,4-difluoro-1-(6-(trifluoromethyl)pyridin-3-yl)cyclohexyl)methyl)-3-fluoro-2-methylbenzamide]	8.40

Next, values leading:

pIC50	SMILES
8.21	Cc1ncc(C(CNC(=O)c2cccc(Cl)c2Cl)C2CCC(F)(F)CC2)cn1 (stereo not drawn) [2,3-dichloro-N-[2-(4,4-difluorocyclohexyl)-2-(2-methylpyrimidin-5-yl)ethyl]benzamide]
5.44	O=C(NCC1(c2ccc(Cl)cc2)CCOCC1)c1cc(F)cc(F)c1F [N-[4-(4-Chloro-phenyl)-tetrahydro-pyran-4-ylmethyl]-2,3,5-trifluoro-benzamide]
6.10	O=C(NCC1(c2ccc(Cl)cc2)CCOCC1)c1ccccc1Cl [2-Chloro-N-[4-(4-chloro-phenyl)-tetrahydro-pyran-4-ylmethyl]-benzamide]
5.54	Cc1ccc(Cl)c(C(=O)NCC2(c3cccnc3)CCCC2)c1 [2-Chloro-5-methyl-N-(1-pyridin-3-yl-cyclopentylmethyl)-benzamide]
7.96	O=C(NCC1(c2ccc(F)nc2)CCC(F)(F)CC1)c1cccc(Cl)c1F [3-chloro-N-((4,4-difluoro-1-(6-fluoropyridin-3-yl)cyclohexyl)methyl)-2-fluorobenzamide]
6.59	COc1ccc(C2(CNC(=O)c3cccc(Cl)c3Cl)CCCC2)cc1 [2,3-Dichloro-N-[1-(4-methoxy-phenyl)-cyclopentylmethyl]-benzamide]
5.68	Cc1ccccc1C(=O)NCC1(c2ccc(Cl)cc2)CCOCC1 [N-[4-(4-Chloro-phenyl)-tetrahydro-pyran-4-ylmethyl]-2-methyl-benzamide]
7.37	CC(NC(=O)c1cccc(Cl)c1Cl)C1(c2ccc(Br)nc2)CCC(F)(F)CC1 (stereo not drawn) [N-(1-(1-(6-bromopyridin-3-yl)-4,4-difluorocyclohexyl)ethyl)-2,3-dichlorobenzamide]
9.12	Cc1ccc(Cl)c(C(=O)NCC2(c3ccc(F)nc3)CCC(F)(F)CC2)c1 [2-chloro-N-[[4,4-difluoro-1-(6-fluoro-3-pyridyl)cyclohexyl]methyl]-5-methyl-benzamide]
8.80	O=C(NCC(c1ccc(Cl)cc1)C1CCOCC1)c1cccc(Cl)c1Cl (stereo not drawn) [2,3-dichloro-N-[2-(4-chlorophenyl)-2-tetrahydropyran-4-yl-ethyl]benzamide]
7.82	Cc1ncc(C2(CNC(=O)c3cccc(Cl)c3Cl)CCOC2)cn1 (stereo not drawn) [2,3-dichloro-N-((3-(2-methylpyrimidin-5-yl)tetrahydrofuran-3-yl)methyl)benzamide]
6.60	O=C(NCC1(c2cnc(C(F)(F)F)nc2)CCOCC1)c1cccc(Cl)c1Cl [2,3-dichloro-N-[[4-[2-(trifluoromethyl)pyrimidin-5-yl]tetrahydropyran-4-yl]methyl]benzamide]
8.43	O=C(NCC(CC1(F)CC1)c1ccc(C(F)(F)F)nc1)c1cccc(Cl)c1Cl (stereo not drawn) [2,3-dichloro-N-[3-(1-fluorocyclopropyl)-2-[6-(trifluoromethyl)-3-pyridyl]propyl]benzamide]
5.37	O=C(NCC1(c2ccc(Cl)cc2)CCOCC1)c1cccc(C(F)(F)F)c1F [N-[4-(4-Chloro-phenyl)-tetrahydro-pyran-4-ylmethyl]-2-fluoro-3-trifluoromethyl-benzamide]
